Results from PMC10071561, “Conformation-dependent ligand hot spots in the spliceosomal RNA helicase BRR2” (Acta Crystallographica. Section D, Structural Biology, 2023).
pIC50: −log10 of the molar value. Like-named read-outs stand apart in the source and are kept apart here. Blank lines part the entries; values can stand above or below the compound they belong to.

Key:
[1] = target: T1, hBRR2 (spliceosomal RNA helicase BRR2) (Homo sapiens, UniProt O75643); experiment: co-crystal structure (X-ray, […] Å); format: binding; design: gene SNRNP200; hBRR2T1, residues 395-2129
[2] = target: T1, hBRR2 (spliceosomal RNA helicase BRR2); experiment: crystal soaking, X-ray structure ([…] Å); also U4/U6 unwinding inhibition; format: biochemical; design: gene SNRNP200; hBRR2T1 (residues 395-2129), N-terminal His tag not cleaved, baculovirus/High Five insect cells; isolated, without hJab1deltaC, in U4*/U6 unwinding assay
[3] = target: T1, hBRR2 (spliceosomal RNA helicase BRR2); experiment: as above; format: biochemical; design: gene SNRNP200; hBRR2T1 (residues 395-2129), N-terminal His tag not cleaved, baculovirus/High Five insect cells; isolated, without hJab1deltaC, in U4*/U6 unwinding assay; remark: listed apart in the source

T1 sequence (O75643 395-2129): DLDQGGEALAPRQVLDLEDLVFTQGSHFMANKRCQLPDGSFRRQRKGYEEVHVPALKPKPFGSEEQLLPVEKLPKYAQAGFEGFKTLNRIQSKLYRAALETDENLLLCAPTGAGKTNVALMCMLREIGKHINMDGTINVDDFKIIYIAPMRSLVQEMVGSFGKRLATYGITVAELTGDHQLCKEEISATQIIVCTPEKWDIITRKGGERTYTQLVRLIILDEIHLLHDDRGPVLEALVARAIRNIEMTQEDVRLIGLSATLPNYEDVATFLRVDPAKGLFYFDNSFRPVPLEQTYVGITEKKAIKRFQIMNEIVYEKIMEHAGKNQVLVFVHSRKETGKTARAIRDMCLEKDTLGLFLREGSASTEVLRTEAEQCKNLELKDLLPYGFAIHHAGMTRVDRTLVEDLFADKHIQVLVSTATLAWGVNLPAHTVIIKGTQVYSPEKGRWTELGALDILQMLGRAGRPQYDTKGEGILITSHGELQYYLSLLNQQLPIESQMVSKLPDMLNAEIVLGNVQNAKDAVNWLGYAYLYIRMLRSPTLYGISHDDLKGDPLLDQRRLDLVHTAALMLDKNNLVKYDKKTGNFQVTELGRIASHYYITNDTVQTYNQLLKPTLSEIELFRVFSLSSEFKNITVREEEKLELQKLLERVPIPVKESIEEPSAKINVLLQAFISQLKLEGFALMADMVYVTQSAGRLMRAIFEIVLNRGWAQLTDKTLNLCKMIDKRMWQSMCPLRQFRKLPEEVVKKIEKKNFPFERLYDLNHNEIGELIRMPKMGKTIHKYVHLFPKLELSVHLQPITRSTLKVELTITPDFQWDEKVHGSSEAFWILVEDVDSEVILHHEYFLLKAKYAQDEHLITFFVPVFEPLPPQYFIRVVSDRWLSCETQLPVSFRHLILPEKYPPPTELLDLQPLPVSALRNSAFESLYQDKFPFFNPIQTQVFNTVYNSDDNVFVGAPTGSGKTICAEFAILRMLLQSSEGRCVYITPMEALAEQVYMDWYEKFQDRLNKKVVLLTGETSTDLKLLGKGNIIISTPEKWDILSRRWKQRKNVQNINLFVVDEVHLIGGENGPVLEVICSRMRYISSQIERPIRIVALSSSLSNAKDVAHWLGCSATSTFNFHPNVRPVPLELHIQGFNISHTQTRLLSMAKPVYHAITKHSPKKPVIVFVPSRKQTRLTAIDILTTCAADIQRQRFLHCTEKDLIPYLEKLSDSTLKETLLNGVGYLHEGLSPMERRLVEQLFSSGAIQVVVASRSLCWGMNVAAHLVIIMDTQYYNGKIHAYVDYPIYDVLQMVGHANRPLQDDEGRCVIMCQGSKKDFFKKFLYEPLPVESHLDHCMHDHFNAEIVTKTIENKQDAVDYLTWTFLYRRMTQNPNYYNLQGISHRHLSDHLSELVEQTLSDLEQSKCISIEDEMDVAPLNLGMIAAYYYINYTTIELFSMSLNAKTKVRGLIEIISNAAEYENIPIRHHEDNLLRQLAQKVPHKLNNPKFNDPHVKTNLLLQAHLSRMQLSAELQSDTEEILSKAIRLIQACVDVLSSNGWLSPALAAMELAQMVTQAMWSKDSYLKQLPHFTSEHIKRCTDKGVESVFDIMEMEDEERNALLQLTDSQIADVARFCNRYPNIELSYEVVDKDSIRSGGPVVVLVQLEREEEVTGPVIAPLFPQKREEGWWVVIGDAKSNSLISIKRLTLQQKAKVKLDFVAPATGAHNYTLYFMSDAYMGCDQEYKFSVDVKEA

Structure (SMILES): [H]/N=C(/N)NS(=O)(=O)c1ccc(N)cc1 [SG, 4-amino-N-(aminoiminomethyl)benzolsulfonamide]
co-crystal structure (X-ray, 2.87 Å) [1]: In this hBRR2^T1 crystal structure, sulfaguanidine is positioned at the interface between the two helicase cassettes

pIC50 [2]: < 4.05
Structure (SMILES): O=S(=O)(NO)c1ccccc1 [compound 24, Piloty's acid]

pIC50 [3]: < 3.00
Structure (SMILES): O=S(=O)(N=C(S)S)c1ccccc1 [compound 50]
